Experimental data published in US10568879B2 (GALAPAGOS NV, priority 2015, dated 2020).

Legend:
[1] = target: T1, GPR84 (Homo sapiens, UniProt Q9NQS5); experiment: GPR84 [35S]GTPγS binding assay; assay type: biochemical; conditions: 3,3′-diindolylmethane at EC80; membranes from stable cell line over expressing GPR84
T1 construct: expressed in transfected cells
How it was run: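 Antagonist-mode [35S]GTPγS binding on membranes from a GPR84-overexpressing stable line (GDP-preincubated), stimulated with 3,3′-diindolylmethane at EC80. Buffer 20 mM Tris pH 7.5, 5 mM MgCl2, 250 mM NaCl, saponin; 0.1 nM [35S]GTPγS, 90 min at room temperature, SPA bead read-out.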

[2] = test system: human neutrophils; experiment: Human neutrophil migration assay; assay type: cell-based; conditions: Homo sapiens, Neutrophil; embelin at EC80 as chemotactic agent; 1 h at 37° C.; read-out: Human neutrophil migration IC50
Experimental: The activity of GPR84 agonists and antagonists can therefore be assayed in a human neutrophil migration assay. The human neutrophil migration assay makes use of freshly isolated human neutrophils from buffy coats that are subsequently used in a functional chemotaxis assay setup. […] After 1 h of incubation at 37° C. and 5% CO2, the number of migrated neutrophils in the lower compartment can be quantified by measuring the ATP content using ATPlite™ Luminescence Assay System. A human buffy coat suspension is diluted with an equal volume of ice cold DPBS. 20 mL of the diluted buffy coat suspension is gently mixed with 4 mL of ACD buffer (140 mM citric acid, 200 mM sodium citrate and 220 mM dextrose). Then, 12 mL of a 6% dextran/0.9% NaCl solution (15 g dextran T2000 and 2.25 g NaCl dissolved in 250 mL H2O) is added to the mixture and the samples are inverted gently up to 20 times. The total volume is transferred to a new recipient and incubated at room temperature to allow sedimentation of red blood cells. The yellowish upper fraction is then transferred to a clean centrifugation tube and centrifuged for 12 min at 1300 rpm and 4° C. After centrifugation, the supernatant is discarded and the remaining cell pellet is rapidly resuspended in 12 mL of ice-cold H2O to perform a red blood cell lysis by osmotic burst. After 20 seconds, 4 mL of ice-cold 0.6 M KCl is added to restore salt concentration. Samples are mixed carefully and centrifuged for 6 min at 1300 rpm and 4° C. The supernatant is discarded and the red blood cell lysis procedure is repeated one more time. […] A neutrophil cell suspension of 8.9×10^6 cells per mL is prepared in chemotaxis buffer and 180 μL per well is plated in a 96-well V-bottom plate. 20 μL of test compound solution in chemotaxis buffer is added to the 180 μL cell suspension. The mixture is incubated at room temperature for 30 min with intermediate gentle resuspension of the cells after 15 min. […] After 1 h at 37° C., 5% CO2 in a humidified incubator, the upper plate of the Transwell® system is gently removed. […] After incubation, 270 μL of cell lysate is then transferred onto a white 96-well plate for quantification by a luminescence plate reader. The relative luminescent signal measured is considered linearly related to the number of cells having migrated from the upper compartment into the receiver well.

T1 sequence (Q9NQS5 whole entry): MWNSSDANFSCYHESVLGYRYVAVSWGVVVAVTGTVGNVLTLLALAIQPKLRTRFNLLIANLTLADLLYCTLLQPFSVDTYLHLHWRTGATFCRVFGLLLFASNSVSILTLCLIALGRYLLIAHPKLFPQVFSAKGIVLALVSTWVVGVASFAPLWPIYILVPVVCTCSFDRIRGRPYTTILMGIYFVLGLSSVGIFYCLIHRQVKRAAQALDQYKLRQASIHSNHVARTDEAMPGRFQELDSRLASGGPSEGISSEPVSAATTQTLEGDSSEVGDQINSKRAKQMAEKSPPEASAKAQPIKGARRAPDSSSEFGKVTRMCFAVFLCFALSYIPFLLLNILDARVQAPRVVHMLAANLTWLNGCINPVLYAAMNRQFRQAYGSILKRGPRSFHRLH

Row | IC50 [1] | IC50 [2] | Compound
1 | 0.01 to 100 nM | 0.01 to 100 nM | Cc1c2n(c(OC[C@@H]3COCCO3)cc1=O)CCc1cc(C3=CCN(C(=O)OCC(F)(F)F)CC3)ccc1-2 [Compound 79, 2,2,2-trifluoroethyl 4-[4-[[(2S)-1,4-dioxan-2-yl]methoxy]-1-methyl-2-oxo-6,7-dihydrobenzo[a]quinolizin-9-yl]-3,6-dihydro-2H-pyridine-1-carboxylate]
2 | 0.01 to 100 nM | 0.01 to 100 nM | COC(=O)N1CCC(c2ccc3c(c2)CCn2c(OC[C@@H]4COCCO4)cc(=O)c(C)c2-3)CC1 [Compound 80, methyl 4-[4-[[(2S)-1,4-dioxan-2-yl]methoxy]-1-methyl-2-oxo-6,7-dihydrobenzo[a]quinolizin-9-yl]piperidine-1-carboxylate]
3 | 0.01 to 100 nM | 0.01 to 100 nM | CCOC(=O)N1CCC(c2ccc3c(c2)CCn2c(OC[C@@H]4COCCO4)cc(=O)c(C)c2-3)CC1 [Compound 81, ethyl 4-[4-[[(2S)-1,4-dioxan-2-yl]methoxy]-1-methyl-2-oxo-6,7-dihydrobenzo[a]quinolizin-9-yl]piperidine-1-carboxylate]
4 | 0.01 to 100 nM | 0.01 to 100 nM | Cc1c2n(c(OC[C@@H]3COCCO3)cc1=O)CCc1cc(C3CCN(C(=O)OC(C)C)CC3)ccc1-2 [Compound 82, isopropyl 4-[4-[[(2S)-1,4-dioxan-2-yl]methoxy]-1-methyl-2-oxo-6,7-dihydrobenzo[a]quinolizin-9-yl]piperidine-1-carboxylate]
5 | 0.01 to 100 nM | 0.01 to 100 nM | Cc1c2n(c(OC[C@@H]3COCCO3)cc1=O)CCc1cc(C3CCN(C(=O)OCC(F)(F)F)CC3)ccc1-2 [Compound 83, 2,2,2-trifluoroethyl 4-[4-[[(2S)-1,4-dioxan-2-yl]methoxy]-1-methyl-2-oxo-6,7-dihydrobenzo[a]quinolizin-9-yl]piperidine-1-carboxylate]
6 | 0.01 to 100 nM | 0.01 to 100 nM | Cc1c2n(c(OC[C@@H]3COCCO3)cc1=O)CCc1cc(N3CC(F)(F)C3)ccc1-2 [Compound 86, 9-(3,3-difluoroazetidin-1-yl)-4-[[(2S)-1,4-dioxan-2-yl]methoxy]-1-methyl-6,7-dihydrobenzo[a]quinolizin-2-one]
7 | 0.01 to 100 nM | 100 to 500 nM | Cc1c2n(c(OC[C@@H]3COCCO3)cc1=O)CCc1cc(N3CC(F)C3)ccc1-2 [Compound 91, 4-[[(2S)-1,4-dioxan-2-yl]methoxy]-9-(3-fluoroazetidin-1-yl)-1-methyl-6,7-dihydrobenzo[a]quinolizin-2-one]
8 | 0.01 to 100 nM | 100 to 500 nM | Cc1c2n(c(OC[C@@H]3COCCO3)cc1=O)CCc1cc(N3CCC3)ccc1-2 [Compound 93, 9-(azetidin-1-yl)-4-[[(2S)-1,4-dioxan-2-yl]methoxy]-1-methyl-6,7-dihydrobenzo[a]quinolizin-2-one]
9 | 0.01 to 100 nM | 100 to 500 nM | Cc1c2n(c(OC[C@@H]3COCCO3)cc1=O)CCc1cc(N3CC(n4cccn4)C3)ccc1-2 [Compound 95, 4-[[(2S)-1,4-dioxan-2-yl]methoxy]-1-methyl-9-(3-pyrazol-1-ylazetidin-1-yl)-6,7-dihydrobenzo[a]quinolizin-2-one]

Further lines, the molecule ahead of its results:

Row | Compound | IC50 [1] | IC50 [2]
10 | Cc1c2n(c(OCC3CCCO3)cc1=O)CCc1cc(OCc3ccccn3)ccc1-2 (stereo not drawn) [Compound 45, 1-methyl-9-(2-pyridylmethoxy)-4-(tetrahydrofuran-2-ylmethoxy)-6,7-dihydrobenzo[a]quinolizin-2-one] | 0.01 to 100 nM | 100 to 500 nM
11 | Cc1c2n(c(OCC3CCCCO3)cc1=O)CCc1cc(OCc3ccccn3)ccc1-2 (stereo not drawn) [Compound 46, 1-methyl-9-(2-pyridylmethoxy)-4-(tetrahydropyran-2-ylmethoxy)-6,7-dihydrobenzo[a]quinolizin-2-one] | 0.01 to 100 nM | 0.01 to 100 nM
12 | Cc1c2n(c(OCC3CCCCO3)cc1=O)CCc1cc(OCC3CCCOC3)ccc1-2 (stereo not drawn) [Compound 48, 1-methyl-4-(tetrahydropyran-2-ylmethoxy)-9-(tetrahydropyran-3-ylmethoxy)-6,7-dihydrobenzo[a]quinolizin-2-one] | 0.01 to 100 nM | 0.01 to 100 nM
13 | Cc1c2n(c(OC[C@@H]3COCCO3)cc1=O)CCc1cc(OCC3CCCOC3)ccc1-2 (stereo partly drawn) [Compound 49, 4-[[(2S)-1,4-dioxan-2-yl]methoxy]-1-methyl-9-(tetrahydropyran-3-ylmethoxy)-6,7-dihydrobenzo[a]quinolizin-2-one] | 0.01 to 100 nM | 0.01 to 100 nM
14 | Cc1ccc(COc2ccc3c(c2)CCn2c(OCC4CCCO4)cc(=O)c(C)c2-3)cn1 (stereo not drawn) [Compound 50, 1-methyl-9-[(6-methyl-3-pyridyl)methoxy]-4-(tetrahydrofuran-2-ylmethoxy)-6,7-dihydrobenzo[a]quinolizin-2-one] | 0.01 to 100 nM | 0.01 to 100 nM
15 | Cc1ccc(COc2ccc3c(c2)CCn2c(OCC4CCCCO4)cc(=O)c(C)c2-3)cn1 (stereo not drawn) [Compound 51, 1-methyl-9-[(6-methyl-3-pyridyl)methoxy]-4-(tetrahydropyran-2-ylmethoxy)-6,7-dihydrobenzo[a]quinolizin-2-one] | 0.01 to 100 nM | 0.01 to 100 nM
16 | Cc1noc(COc2ccc3c(c2)CCn2c(OC[C@@H]4COCCO4)cc(=O)c(C)c2-3)n1 [Compound 58, 4-[[(2S)-1,4-dioxan-2-yl]methoxy]-1-methyl-9-[(3-methyl-1,2,4-oxadiazol-5-yl)methoxy]-6,7-dihydrobenzo[a]quinolizin-2-one] | 0.01 to 100 nM | 0.01 to 100 nM
17 | Cc1c2n(c(OC[C@@H]3COCCO3)cc1=O)CCc1cc(OCC(F)F)ccc1-2 [Compound 61, 9-(2,2-difluoroethoxy)-4-[[(2S)-1,4-dioxan-2-yl]methoxy]-1-methyl-6,7-dihydrobenzo[a]quinolizin-2-one] | 0.01 to 100 nM | 0.01 to 100 nM
18 | Cc1c2n(c(OC[C@@H]3COCCO3)cc1=O)CCc1cc(N3CCOCC3)ccc1-2 [Compound 63, 4-[[(2S)-1,4-dioxan-2-yl]methoxy]-1-methyl-9-morpholino-6,7-dihydrobenzo[a]quinolizin-2-one] | 0.01 to 100 nM | 100 to 500 nM
19 | Cc1c2n(c(OC[C@@H]3COCCO3)cc1=O)CCc1cc(N3CCC(F)(F)CC3)ccc1-2 [Compound 65, 9-(4,4-difluoro-1-piperidyl)-4-[[(2S)-1,4-dioxan-2-yl]methoxy]-1-methyl-6,7-dihydrobenzo[a]quinolizin-2-one] | 0.01 to 100 nM | 0.01 to 100 nM
20 | Cc1c2n(c(OC[C@@H]3COCCO3)cc1=O)CCc1cc(N3CCN(C(=O)C4CC4)CC3)ccc1-2 [Compound 69, 9-[4-(cyclopropanecarbonyl)piperazin-1-yl]-4-[[(2S)-1,4-dioxan-2-yl]methoxy]-1-methyl-6,7-dihydrobenzo[a]quinolizin-2-one] | 0.01 to 100 nM | 0.01 to 100 nM
21 | Cc1c2n(c(OC[C@@H]3COCCO3)cc1=O)CCc1cc(NC(=O)C3CC3)ccc1-2 [Compound 70, N-[4-[[(2S)-1,4-dioxan-2-yl]methoxy]-1-methyl-2-oxo-6,7-dihydrobenzo[a]quinolizin-9-yl]cyclopropanecarboxamide] | 0.01 to 100 nM | 0.01 to 100 nM
22 | COC(=O)N1CC=C(c2ccc3c(c2)CCn2c(OC[C@@H]4COCCO4)cc(=O)c(C)c2-3)CC1 [Compound 76, methyl 4-[4-[[(2S)-1,4-dioxan-2-yl]methoxy]-1-methyl-2-oxo-6,7-dihydrobenzo[a]quinolizin-9-yl]-3,6-dihydro-2H-pyridine-1-carboxylate] | 0.01 to 100 nM | 0.01 to 100 nM
23 | CCOC(=O)N1CC=C(c2ccc3c(c2)CCn2c(OC[C@@H]4COCCO4)cc(=O)c(C)c2-3)CC1 [Compound 77, ethyl 4-[4-[[(2S)-1,4-dioxan-2-yl]methoxy]-1-methyl-2-oxo-6,7-dihydrobenzo[a]quinolizin-9-yl]-3,6-dihydro-2H-pyridine-1-carboxylate] | 0.01 to 100 nM | 0.01 to 100 nM
24 | Cc1c2n(c(OC[C@@H]3COCCO3)cc1=O)CCc1cc(C3=CCN(C(=O)OC(C)C)CC3)ccc1-2 [Compound 78, isopropyl 4-[4-[[(2S)-1,4-dioxan-2-yl]methoxy]-1-methyl-2-oxo-6,7-dihydrobenzo[a]quinolizin-9-yl]-3,6-dihydro-2H-pyridine-1-carboxylate] | 0.01 to 100 nM | 0.01 to 100 nM
